7 molecules from US11584714B2 (priority 2018, dated 2023) can be followed below.

Structures can show the parent of a compound that is named as a salt. Where two headings read alike, the source gives them in different places.

Type in all cases: biochemical
One assay concerns the target MASP-2 (CCP1-CCP2-SP) (Homo sapiens (Human), UniProt O00187). Put plainly: biochemical. Conditions: for Ki: read-out: MASP-2 Ki; for MASP-2 vs. thrombin selectivity: selectivity for MASP-2 inhibition versus thrombin.
Another assay concerns the target mMASP-2 (Mus musculus (Mouse), UniProt Q91WP0). Nature of the assay: Enzymatic inhibition of mMASP-2. The following applies: read-out: mMASP-2 Ki.
In another assay the target is human α-thrombin (Homo sapiens (Human), UniProt P00734). Put plainly: Enzymatic assay for thrombin (Boc-VPR-AMC substrate).
A further assay deals with Lectin Pathway. Nature of the assay: Lectin pathway activation assay in human serum (mannan-coated ELISA, C3c detection). Conditions: 1% human serum. On the technique in general: In an ELISA, binding on a coated surface is turned into a signal by an enzyme label.

mMASP-2, sequence (Q91WP0 20-685): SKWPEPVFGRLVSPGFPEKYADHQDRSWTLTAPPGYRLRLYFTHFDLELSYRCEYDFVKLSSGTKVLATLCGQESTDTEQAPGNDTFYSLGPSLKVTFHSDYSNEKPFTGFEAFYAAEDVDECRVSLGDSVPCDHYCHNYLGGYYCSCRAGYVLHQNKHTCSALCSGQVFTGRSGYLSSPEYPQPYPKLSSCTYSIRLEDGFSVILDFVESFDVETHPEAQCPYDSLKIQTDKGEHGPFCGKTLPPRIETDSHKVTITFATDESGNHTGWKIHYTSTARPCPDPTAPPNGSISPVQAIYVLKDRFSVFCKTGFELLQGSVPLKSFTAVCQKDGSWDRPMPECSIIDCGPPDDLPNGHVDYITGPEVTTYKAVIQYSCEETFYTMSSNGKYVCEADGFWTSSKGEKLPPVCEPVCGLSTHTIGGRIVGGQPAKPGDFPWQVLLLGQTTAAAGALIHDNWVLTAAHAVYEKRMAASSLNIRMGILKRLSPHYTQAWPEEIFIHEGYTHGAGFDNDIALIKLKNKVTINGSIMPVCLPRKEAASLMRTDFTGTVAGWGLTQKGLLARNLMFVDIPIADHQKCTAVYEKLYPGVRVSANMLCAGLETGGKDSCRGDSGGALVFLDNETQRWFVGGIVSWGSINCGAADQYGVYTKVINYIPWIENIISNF
MASP-2 (CCP1-CCP2-SP), sequence (O00187 445-686): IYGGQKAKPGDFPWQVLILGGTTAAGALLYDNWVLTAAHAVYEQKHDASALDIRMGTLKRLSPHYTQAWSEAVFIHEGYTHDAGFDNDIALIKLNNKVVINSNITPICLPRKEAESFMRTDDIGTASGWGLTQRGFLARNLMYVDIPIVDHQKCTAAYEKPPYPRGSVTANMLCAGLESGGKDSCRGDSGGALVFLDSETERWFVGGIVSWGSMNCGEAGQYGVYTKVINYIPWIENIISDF

As for `Cc1nc(N)ccc1CNC(=O)[C@H](C)NC(=O)[C@H]1C[C@H](Cc2cccc(C#N)c2)CN1` [compound 1429, (2R,4S)—N—((S)-1-(((6-Amino-2-methylpyridin-3-yl)methyl)amino)-1-oxopropan-2-yl)-4-(3-cyanobenzyl)pyrrolidine-2-carboxamide Di-trifluoroacetate salt], the figures for the Ki on MASP-2 (CCP1-CCP2-SP), on mMASP-2 and on human α-thrombin (Thrombin Ki (μM)) were under 500 nM, under 500 nM and 2.5 to 10 µM, respectively. For the same molecule, the “MASP-2 vs. thrombin selectivity” value at MASP-2 (CCP1-CCP2-SP) is given as “**** (≥100-fold)”. Besides, the IC50 with Lectin Pathway was 500 to 5000 nM.

Regarding `Cc1nc(N)ccc1CNC(=O)[C@H](C)NC(=O)[C@H]1C[C@H](Cc2ccc(Oc3ccccc3)cc2)CN1` [compound 1430, (2R,4S)—N—((S)-1-(((6-Amino-2-methylpyridin-3-yl)methyl)amino)-1-oxopropan-2-yl)-4-(4-phenoxybenzyl)pyrrolidine-2-carboxamide Di-trifluoroacetate salt], the Ki at MASP-2 (CCP1-CCP2-SP) is under 500 nM; on mMASP-2 it was under 500 nM; on human α-thrombin (read-out: Thrombin Ki) it was over 25 µM. For the same molecule, the “MASP-2 vs. thrombin selectivity” value on MASP-2 (CCP1-CCP2-SP) is reported as “**** (≥100-fold)”. For the same molecule, the IC50 in the assay on Lectin Pathway fell in the range of 500 to 5000 nM.

`Cc1nc(N)ccc1CNC(=O)[C@H](C)NC(=O)[C@H]1C[C@H](Cc2ccc(C#N)c3ccccc23)CN1` [compound 1431, (2R,4S)—N—((S)-1-(((6-Amino-2-methylpyridin-3-yl)methyl)amino)-1-oxopropan-2-yl)-4-((4-cyanonaphthalen-1-yl)methyl)pyrrolidine-2-carboxamide Dihydrochloride]: the Ki was under 500 nM at MASP-2 (CCP1-CCP2-SP), under 500 nM at mMASP-2 and 10 to 25 µM on human α-thrombin (Thrombin Ki (μM)). In addition, the “MASP-2 vs. thrombin selectivity” value at MASP-2 (CCP1-CCP2-SP) is recorded as “**** (≥100-fold)”. The molecule also yielded a half-inhibitory concentration (IC50) in the assay with Lectin Pathway of 50 to 500 nM.

Take `Cc1nc(N)ccc1CNC(=O)[C@H](C)NC(=O)[C@H]1C[C@H](Cc2cc(Cl)cc3ccccc23)CN1` [compound 1432, (2R,4S)—N—((S)-1-(((6-Amino-2-methylpyridin-3-yl)methyl)amino)-1-oxopropan-2-yl)-4-((3-chloronaphthalen-1-yl)methyl)pyrrolidine-2-carboxamide Dihydrochloride]: the Ki on MASP-2 (CCP1-CCP2-SP) is under 500 nM; on mMASP-2, under 500 nM; on human α-thrombin (Thrombin Ki (μM)), 10 to 25 µM. The “MASP-2 vs. thrombin selectivity” value at MASP-2 (CCP1-CCP2-SP) was “**** (≥100-fold)”. The same molecule displayed an IC50 with Lectin Pathway of 500 to 5000 nM.

For the molecule `C[C@H](NC(=O)[C@H]1C[C@@H](c2ccccc2)CCN1)C(=O)NCc1cnc2[nH]cc(Cl)c2c1` [compound 1433, (2R,4S)—N—((S)-1-(((3-Chloro-1H-pyrrolo[2,3-b]pyridin-5-yl)methyl)amino)-1-oxopropan-2-yl)-4-phenylpiperidine-2-carboxamide], the Ki on MASP-2 (CCP1-CCP2-SP) was under 500 nM; at mMASP-2, under 500 nM; at human α-thrombin (Thrombin Ki (μM)), 0.5 to 2.5 µM. Also, on MASP-2 (CCP1-CCP2-SP), the “MASP-2 vs. thrombin selectivity” value is “**** (≥100-fold)”. Besides, in the assay on Lectin Pathway, the IC50 was 50 to 500 nM.

Take `Cc1nc(N)ccc1CNC(=O)[C@H](C)NC(=O)[C@H]1C[C@H](Cc2cc(Cl)cc(Cl)c2)CN1` [compound 1435, (2R,4S)—N—((S)-1-(((6-Amino-2-methylpyridin-3-yl)methyl)amino)-1-oxopropan-2-yl)-4-(3,5-dichlorobenzyl)pyrrolidine-2-carboxamide Dihydrochloride]: the Ki was under 500 nM at MASP-2 (CCP1-CCP2-SP), under 500 nM at mMASP-2 and 10 to 25 µM at human α-thrombin (Thrombin Ki (μM)). For the same molecule, the “MASP-2 vs. thrombin selectivity” value on MASP-2 (CCP1-CCP2-SP) is “**** (≥100-fold)”. The IC50 in the assay on Lectin Pathway fell in the range of 500 to 5000 nM.

In the case of `Cc1nc(N)ccc1CNC(=O)[C@@H]1CCN1C(=O)[C@H]1C[C@H](Cc2ccc(Br)cc2)CN1` [compound 1438, (S)—N-((6-Amino-2-methylpyridin-3-yl)methyl)-1-((2R,4S)-4-(4-bromobenzyl)pyrrolidine-2-carbonyl)azetidine-2-carboxamide Di-trifluoroacetate salt], the Ki on MASP-2 (CCP1-CCP2-SP) was under 500 nM; on mMASP-2 it was 500 to 2500 nM; on human α-thrombin (read-out: Thrombin Ki), under 0.5 µM. For the same molecule, the “MASP-2 vs. thrombin selectivity” value at MASP-2 (CCP1-CCP2-SP) was “** (≥5.0 to <25-fold)”. Further, the IC50 in the assay with Lectin Pathway is 500 to 5000 nM.

As usually defined, the Ki is the dissociation constant of the complex between target and ligand, obtained from inhibition or displacement. What is called IC50 is the concentration at which inhibition is half-maximal. Lower therefore signals greater potency in that assay.
